Laboratory results taken from ChEMBL document CHEMBL1129123, “Drupangtonine, a novel antileukemic alkaloid from Cephalotaxus harringtonia var. drupacea” (Bioorg Med Chem Lett, 1996).
Values after ≈ are worked out from the molar mass of the structure shown.

Test system: P388
Assay: Antileukemic activity against P-388 leukemia cells.
Assay type: functional, cell-based
Conditions: Mus musculus

Compound	IC50 [µg/mL]
COC(=O)C[C@](O)(CCC(C)C)C(=O)O[C@H]1[C@H]2c3cc4c(cc3[C@H]3CN5CCC[C@]25C[C@]1(OC)O3)OCO4	0.007 (≈ 0.0132 µM)
COC(=O)C[C@](O)(CCC(C)C)C(=O)O[C@@H]1C(OC)=CC23CCCN2CCc2cc4c(cc2[C@H]13)OCO4 (single isomer, unassigned) [DEOXYHARRINGTONINE]	0.0075 (≈ 0.0145 µM)
COC(=O)C[C@](O)(CCC(C)(C)O)C(=O)O[C@@H]1C(OC)=CC23CCCN2CCc2cc4c(cc2[C@H]13)OCO4 (single isomer, unassigned) [HARRINGTONINE]	0.032 (≈ 0.0602 µM)
COC(=O)C[C@](O)(CCCC(C)(C)O)C(=O)O[C@@H]1C(OC)=CC23CCCN2CCc2cc4c(cc2[C@H]13)OCO4 (single isomer, unassigned) [OMACETAXINE MEPESUCCINATE]	0.017 (≈ 0.0312 µM)
